Reference: PMC10364322, “Evaluation of chronic drug-induced electrophysiological and cytotoxic effects using human-induced pluripotent stem cell-derived cardiomyocytes (hiPSC-CMs)” (Frontiers in Pharmacology, 2023)
Read-outs that look alike come from different tables or passages of the source.

System: hiPSC-CMs (iCell-Cardiomyocytes^2)
Method in brief: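 Monolayers of hiPSC-CMs on fibronectin-coated MEA plates, 50 K/well, kept at 37°C, 5% CO2; compounds added in 0.1% final DMSO after 5-min baseline. Field potential and impedance parameters expressed as mean ± SD percent change from baseline; arrhythmic events noted; cytotoxicity fluorescence normalized to DMSO, Kruskal-Wallis.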

N=C(N)c1ccc(OCCCCCOc2ccc(C(=N)N)cc2)cc1 [Pentamidine]
BR (beating rate), % change from baseline (0.1 µM, 2h): -1±2%
Beating below threshold, number of observations/total well numbers (0.1 µM, 2h): 0/6
Cessation of beating, number of observations/total well numbers (0.1 µM, 2h): 0/6
EAD, number of observations/total well numbers (0.1 µM, 2h): 0/6
FPD (field-potential duration), % change from baseline (0.1 µM, 2h): 2.6±1.2%
FPDc (field-potential duration corrected by beat-rate), % change from baseline (0.1 µM, 2h): 2.2±1.4%
Flat T-wave-like, number of observations/total well numbers (0.1 µM, 2h): 0/6
BR (beating rate), % change from baseline (0.1 µM, 24h): 2±2%
Beating below threshold, number of observations/total well numbers (0.1 µM, 24h): 0/6
Cessation of beating, number of observations/total well numbers (0.1 µM, 24h): 0/6
EAD, number of observations/total well numbers (0.1 µM, 24h): 0/6
FPD (field-potential duration), % change from baseline (0.1 µM, 24h): 2±3.4%
FPDc (field-potential duration corrected by beat-rate), % change from baseline (0.1 µM, 24h): 2.8±3.1%
Flat T-wave-like, number of observations/total well numbers (0.1 µM, 24h): 0/6
BR (beating rate), % change from baseline (0.1 µM, 48h): -4±3%
Beating below threshold, number of observations/total well numbers (0.1 µM, 48h): 0/6
Cessation of beating, number of observations/total well numbers (0.1 µM, 48h): 0/6
EAD, number of observations/total well numbers (0.1 µM, 48h): 0/6
FPD (field-potential duration), % change from baseline (0.1 µM, 48h): 7.3±1.7%
FPDc (field-potential duration corrected by beat-rate), % change from baseline (0.1 µM, 48h): 5.7±2%
Flat T-wave-like, number of observations/total well numbers (0.1 µM, 48h): 0/6
BR (beating rate), % change from baseline (0.1 µM, 72h): -6±3%
Beating below threshold, number of observations/total well numbers (0.1 µM, 72h): 0/6
Cessation of beating, number of observations/total well numbers (0.1 µM, 72h): 0/6
EAD, number of observations/total well numbers (0.1 µM, 72h): 0/6
FPD (field-potential duration), % change from baseline (0.1 µM, 72h): 4.9±2.5%
FPDc (field-potential duration corrected by beat-rate), % change from baseline (0.1 µM, 72h): 3±2.9%
Flat T-wave-like, number of observations/total well numbers (0.1 µM, 72h): 0/6
BR (beating rate), % change from baseline (0.1 µM, 96h): -13±3%
Beating below threshold, number of observations/total well numbers (0.1 µM, 96h): 0/6
Cessation of beating, number of observations/total well numbers (0.1 µM, 96h): 0/6
EAD, number of observations/total well numbers (0.1 µM, 96h): 0/6
FPD (field-potential duration), % change from baseline (0.1 µM, 96h): 9.2±3.1%
FPDc (field-potential duration corrected by beat-rate), % change from baseline (0.1 µM, 96h): 4.3±2.8%
Flat T-wave-like, number of observations/total well numbers (0.1 µM, 96h): 0/6
BR (beating rate), % change from baseline (0.3 µM, 2h): -4±4%
Beating below threshold, number of observations/total well numbers (0.3 µM, 2h): 0/5
Cessation of beating, number of observations/total well numbers (0.3 µM, 2h): 0/5
EAD, number of observations/total well numbers (0.3 µM, 2h): 0/5
FPD (field-potential duration), % change from baseline (0.3 µM, 2h): 9.7±6.7 %
FPDc (field-potential duration corrected by beat-rate), % change from baseline (0.3 µM, 2h): 8±7.4%
Flat T-wave-like, number of observations/total well numbers (0.3 µM, 2h): 0/5
BR (beating rate), % change from baseline (0.3 µM, 24h): 0±3%
Beating below threshold, number of observations/total well numbers (0.3 µM, 24h): 0/5
Cessation of beating, number of observations/total well numbers (0.3 µM, 24h): 0/5
EAD, number of observations/total well numbers (0.3 µM, 24h): 0/5
FPD (field-potential duration), % change from baseline (0.3 µM, 24h): 4.6±3.3%
FPDc (field-potential duration corrected by beat-rate), % change from baseline (0.3 µM, 24h): 4.5±3.1%
Flat T-wave-like, number of observations/total well numbers (0.3 µM, 24h): 0/5
BR (beating rate), % change from baseline (0.3 µM, 48h): -2±4%
Beating below threshold, number of observations/total well numbers (0.3 µM, 48h): 0/5
Cessation of beating, number of observations/total well numbers (0.3 µM, 48h): 0/5
EAD, number of observations/total well numbers (0.3 µM, 48h): 0/5
FPD (field-potential duration), % change from baseline (0.3 µM, 48h): 4.9±2.6%
FPDc (field-potential duration corrected by beat-rate), % change from baseline (0.3 µM, 48h): 4.1±2%
Flat T-wave-like, number of observations/total well numbers (0.3 µM, 48h): 0/5
BR (beating rate), % change from baseline (0.3 µM, 72h): -11±4%
Beating below threshold, number of observations/total well numbers (0.3 µM, 72h): 0/5
Cessation of beating, number of observations/total well numbers (0.3 µM, 72h): 0/5
EAD, number of observations/total well numbers (0.3 µM, 72h): 0/5
FPD (field-potential duration), % change from baseline (0.3 µM, 72h): 10.5±2.1%
FPDc (field-potential duration corrected by beat-rate), % change from baseline (0.3 µM, 72h): 6.4±2.9%
Flat T-wave-like, number of observations/total well numbers (0.3 µM, 72h): 0/5
BR (beating rate), % change from baseline (0.3 µM, 96h): -20±5%
Beating below threshold, number of observations/total well numbers (0.3 µM, 96h): 0/5
Cessation of beating, number of observations/total well numbers (0.3 µM, 96h): 0/5
EAD, number of observations/total well numbers (0.3 µM, 96h): 0/5
FPD (field-potential duration), % change from baseline (0.3 µM, 96h): 17.7±1.7%
FPDc (field-potential duration corrected by beat-rate), % change from baseline (0.3 µM, 96h): 9.3±1.9%
Flat T-wave-like, number of observations/total well numbers (0.3 µM, 96h): 0/5
time point from which physiologically relevant prolongation of FPD and FPDc was observed (1 µM): 48 h
BR (beating rate), % change from baseline (1 µM, 2h): -3±3%
Beating below threshold, number of observations/total well numbers (1 µM, 2h): 0/6
Cessation of beating, number of observations/total well numbers (1 µM, 2h): 0/6
EAD, number of observations/total well numbers (1 µM, 2h): 0/6
FPD (field-potential duration), % change from baseline (1 µM, 2h): 3.6±1.6%
FPDc (field-potential duration corrected by beat-rate), % change from baseline (1 µM, 2h): 2.5±1.7%
Flat T-wave-like, number of observations/total well numbers (1 µM, 2h): 0/6
BR (beating rate), % change from baseline (1 µM, 24h): -7±3%
Beating below threshold, number of observations/total well numbers (1 µM, 24h): 0/6
Cessation of beating, number of observations/total well numbers (1 µM, 24h): 0/6
EAD, number of observations/total well numbers (1 µM, 24h): 0/6
FPD (field-potential duration), % change from baseline (1 µM, 24h): 8±1%
FPDc (field-potential duration corrected by beat-rate), % change from baseline (1 µM, 24h): 5.5±1.6%
Flat T-wave-like, number of observations/total well numbers (1 µM, 24h): 0/6
BR (beating rate), % change from baseline (1 µM, 48h): -16±3 %
Beating below threshold, number of observations/total well numbers (1 µM, 48h): 0/6
Cessation of beating, number of observations/total well numbers (1 µM, 48h): 0/6
EAD, number of observations/total well numbers (1 µM, 48h): 0/6
FPD (field-potential duration), % change from baseline (1 µM, 48h): 21.1±3.4 %
FPDc (field-potential duration corrected by beat-rate), % change from baseline (1 µM, 48h): 14.3±2.3 %
Flat T-wave-like, number of observations/total well numbers (1 µM, 48h): 0/6
BR (beating rate), % change from baseline (1 µM, 72h): -30±2 %
Beating below threshold, number of observations/total well numbers (1 µM, 72h): 0/6
Cessation of beating, number of observations/total well numbers (1 µM, 72h): 0/6
EAD, number of observations/total well numbers (1 µM, 72h): 0/6
FPD (field-potential duration), % change from baseline (1 µM, 72h): 54.7±5.4 %
FPDc (field-potential duration corrected by beat-rate), % change from baseline (1 µM, 72h): 37.5±4.3 %
Flat T-wave-like, number of observations/total well numbers (1 µM, 72h): 0/6
BR (beating rate), % change from baseline (1 µM, 96h): -30±5 %
Beating below threshold, number of observations/total well numbers (1 µM, 96h): 0/6
Cessation of beating, number of observations/total well numbers (1 µM, 96h): 0/6
EAD, number of observations/total well numbers (1 µM, 96h): 0/6
FPD (field-potential duration), % change from baseline (1 µM, 96h): 71.5±10.4 %
FPDc (field-potential duration corrected by beat-rate), % change from baseline (1 µM, 96h): 52.5±8.8 %
Flat T-wave-like, number of observations/total well numbers (1 µM, 96h): 0/6
time point from which physiologically relevant prolongation of FPD and FPDc was observed (3 µM): 24 h
BR (beating rate), % change from baseline (3 µM, 72h): -54±5 %
Beating below threshold, number of observations/total well numbers (3 µM, 72h): 0/6
Cessation of beating, number of observations/total well numbers (3 µM, 72h): 3/6
EAD, number of observations/total well numbers (3 µM, 72h): 2/6
FPD (field-potential duration), % change from baseline (3 µM, 72h): 224.5±68 %
FPDc (field-potential duration corrected by beat-rate), % change from baseline (3 µM, 72h): 156.4±52.5 %
Flat T-wave-like, number of observations/total well numbers (3 µM, 72h): 1/6
cessation of beating, wells/total wells (3 µM, 72h): 3/6
Beating below threshold, number of observations/total well numbers (3 µM, 96h): 1/6
Cessation of beating, number of observations/total well numbers (3 µM, 96h): 5/6
EAD, number of observations/total well numbers (3 µM, 96h): 0/6
Flat T-wave-like, number of observations/total well numbers (3 µM, 96h): 0/6
cessation of beating, wells/total wells (3 µM, 96h): 6/6
BR (beating rate), % change from baseline (3 µM, 2h): -2±3%
Beating below threshold, number of observations/total well numbers (3 µM, 2h): 0/6
Cessation of beating, number of observations/total well numbers (3 µM, 2h): 0/6
EAD, number of observations/total well numbers (3 µM, 2h): 0/6
FPD (field-potential duration), % change from baseline (3 µM, 2h): 3.6±1.9%
FPDc (field-potential duration corrected by beat-rate), % change from baseline (3 µM, 2h): 2.7±2.1%
Flat T-wave-like, number of observations/total well numbers (3 µM, 2h): 0/6
BR (beating rate), % change from baseline (3 µM, 24h): -18±8 %
Beating below threshold, number of observations/total well numbers (3 µM, 24h): 0/6
Cessation of beating, number of observations/total well numbers (3 µM, 24h): 0/6
EAD, number of observations/total well numbers (3 µM, 24h): 0/6
FPD (field-potential duration), % change from baseline (3 µM, 24h): 23.4±11.8 %
FPDc (field-potential duration corrected by beat-rate), % change from baseline (3 µM, 24h): 15.2±8%
Flat T-wave-like, number of observations/total well numbers (3 µM, 24h): 0/6
BR (beating rate), % change from baseline (3 µM, 48h): -30±8 %
Beating below threshold, number of observations/total well numbers (3 µM, 48h): 0/6
Cessation of beating, number of observations/total well numbers (3 µM, 48h): 0/6
EAD, number of observations/total well numbers (3 µM, 48h): 0/6
FPD (field-potential duration), % change from baseline (3 µM, 48h): 73.1±39.4 %
FPDc (field-potential duration corrected by beat-rate), % change from baseline (3 µM, 48h): 52.6±30.7 %
Flat T-wave-like, number of observations/total well numbers (3 µM, 48h): 0/6
concentration from which prolongation of FPD and EAD-like events were induced (time- and dose-dependent): 1 µM
